Measurements from ChEMBL document CHEMBL5113448, “Synthesis and biological evaluation of 4H-benzo[e][1,3]oxazin-4-ones analogues of TGX-221 as inhibitors of PI3Kβ” (Bioorg Med Chem, 2022).
pIC50: −log10 of the molar value.

What follows are compounds tested against Phosphatidylinositol 4,5-bisphosphate 3-kinase catalytic subunit beta isoform (Homo sapiens, UniProt P42338) (assay: Inhibition of PI3Kbeta (unknown origin) incubated for 60 mins in the presence of ATP by Kinase-Glo luminescence assay).
Sequence of Phosphatidylinositol 4,5-bisphosphate 3-kinase catalytic subunit beta isoform (P42338 whole entry, canonical isoform): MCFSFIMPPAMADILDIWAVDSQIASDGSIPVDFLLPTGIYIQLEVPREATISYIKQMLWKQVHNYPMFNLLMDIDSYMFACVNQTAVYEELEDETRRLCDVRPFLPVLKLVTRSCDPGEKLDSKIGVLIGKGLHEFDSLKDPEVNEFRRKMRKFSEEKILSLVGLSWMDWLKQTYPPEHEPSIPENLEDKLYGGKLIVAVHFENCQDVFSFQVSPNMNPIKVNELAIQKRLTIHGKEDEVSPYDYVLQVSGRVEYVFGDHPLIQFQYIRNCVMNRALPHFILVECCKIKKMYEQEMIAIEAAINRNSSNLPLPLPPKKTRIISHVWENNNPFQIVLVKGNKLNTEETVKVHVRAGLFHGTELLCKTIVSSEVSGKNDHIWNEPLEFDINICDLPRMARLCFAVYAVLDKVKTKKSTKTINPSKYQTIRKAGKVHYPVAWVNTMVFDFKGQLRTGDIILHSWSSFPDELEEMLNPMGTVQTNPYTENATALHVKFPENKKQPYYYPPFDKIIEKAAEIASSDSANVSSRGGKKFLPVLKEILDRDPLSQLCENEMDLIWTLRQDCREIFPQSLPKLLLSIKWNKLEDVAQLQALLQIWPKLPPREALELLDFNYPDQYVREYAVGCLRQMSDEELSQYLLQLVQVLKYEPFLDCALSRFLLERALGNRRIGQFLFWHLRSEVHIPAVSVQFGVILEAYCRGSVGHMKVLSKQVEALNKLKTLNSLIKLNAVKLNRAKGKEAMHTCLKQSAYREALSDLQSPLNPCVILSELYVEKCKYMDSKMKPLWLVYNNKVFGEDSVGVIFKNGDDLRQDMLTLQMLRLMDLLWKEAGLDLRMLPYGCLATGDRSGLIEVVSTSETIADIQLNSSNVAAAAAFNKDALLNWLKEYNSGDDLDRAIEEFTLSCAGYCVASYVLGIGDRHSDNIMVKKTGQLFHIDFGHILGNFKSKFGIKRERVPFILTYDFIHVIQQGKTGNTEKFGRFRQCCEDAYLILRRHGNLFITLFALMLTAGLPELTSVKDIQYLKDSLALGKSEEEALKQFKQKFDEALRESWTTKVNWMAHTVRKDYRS

| SMILES | pIC50 |
| --- | --- |
| Cc1cc(C(C)Nc2c(F)cccc2F)c2oc(N3CCOCC3)nc(=O)c2c1 (stereo unspecified) | 5.91 |
| Cc1cc(C(C)Nc2cc(F)cc(F)c2)c2oc(N3CCOCC3)nc(=O)c2c1 (stereo unspecified) | 6.82 |
| Cc1cc(C(C)Nc2ccc(F)c(F)c2)c2oc(N3CCOCC3)nc(=O)c2c1 (stereo unspecified) | 7.20 |
| Cc1cc(C(C)Nc2cc(F)ccc2F)c2oc(N3CCOCC3)nc(=O)c2c1 (stereo unspecified) | 7.15 |
| Cc1cc(C(C)Nc2ccccc2Cl)c2oc(N3CCOCC3)nc(=O)c2c1 (stereo unspecified) | 6.87 |
| Cc1cc(C(C)Nc2ccccc2)c2oc(N3CCOCC3)nc(=O)c2c1 (stereo unspecified) | 6.62 |
| Cc1cc(C(C)Oc2cc(C)c(Cl)c(C)c2)c2oc(N3CCOCC3)nc(=O)c2c1 (stereo unspecified) | < 4.70 |
| Cc1cc(C(C)Nc2ccc(Br)cc2)c2oc(N3CCOCC3)nc(=O)c2c1 (stereo unspecified) | 4.90 |
| Cc1cc(C(C)Nc2ccc(F)cc2F)c2oc(N3CCOCC3)nc(=O)c2c1 (stereo unspecified) | 6.55 |
| Cc1cc(C(C)Nc2cccc(Cl)c2)c2oc(N3CCOCC3)nc(=O)c2c1 (stereo unspecified) | 7.14 |
| Cc1cc(C(C)Nc2cccc3ccccc23)c2oc(N3CCOCC3)nc(=O)c2c1 (stereo unspecified) | 7.31 |
| COc1cccc(OC(C)c2cc(C)cc3c(=O)nc(N4CCOCC4)oc23)c1 (stereo unspecified) | 5.73 |
| Cc1cc(C(C)Nc2cccc(Cl)c2F)c2oc(N3CCOCC3)nc(=O)c2c1 (stereo unspecified) | 6.57 |

Further lines, results first:

| pIC50 | SMILES |
| --- | --- |
| 5.61 | Cc1cccc(OC(C)c2cc(C)cc3c(=O)nc(N4CCOCC4)oc23)c1 (stereo unspecified) |
| < 4.70 | Cc1ccc(OC(C)c2cc(C)cc3c(=O)nc(N4CCOCC4)oc23)cc1 (stereo unspecified) |
| 5.85 | Cc1cc(C(C)Oc2ccccc2)c2oc(N3CCOCC3)nc(=O)c2c1 (stereo unspecified) |
| 6.64 | Cc1cc(C(C)Oc2ccccc2C)c2oc(N3CCOCC3)nc(=O)c2c1 (stereo unspecified) |
| < 4.70 | COc1ccc(OC(C)c2cc(C)cc3c(=O)nc(N4CCOCC4)oc23)cc1 (stereo unspecified) |
| < 4.70 | Cc1cc(C(C)Oc2ccc(Cl)c(C)c2)c2oc(N3CCOCC3)nc(=O)c2c1 (stereo unspecified) |

The compounds below were run against T1, Phosphatidylinositol 4,5-bisphosphate 3-kinase catalytic subunit delta isoform (Homo sapiens) (UniProt O00329) (assay: Inhibition of PI3Kdelta (unknown origin) at 10 uM relative to control).
T1 sequence (whole entry): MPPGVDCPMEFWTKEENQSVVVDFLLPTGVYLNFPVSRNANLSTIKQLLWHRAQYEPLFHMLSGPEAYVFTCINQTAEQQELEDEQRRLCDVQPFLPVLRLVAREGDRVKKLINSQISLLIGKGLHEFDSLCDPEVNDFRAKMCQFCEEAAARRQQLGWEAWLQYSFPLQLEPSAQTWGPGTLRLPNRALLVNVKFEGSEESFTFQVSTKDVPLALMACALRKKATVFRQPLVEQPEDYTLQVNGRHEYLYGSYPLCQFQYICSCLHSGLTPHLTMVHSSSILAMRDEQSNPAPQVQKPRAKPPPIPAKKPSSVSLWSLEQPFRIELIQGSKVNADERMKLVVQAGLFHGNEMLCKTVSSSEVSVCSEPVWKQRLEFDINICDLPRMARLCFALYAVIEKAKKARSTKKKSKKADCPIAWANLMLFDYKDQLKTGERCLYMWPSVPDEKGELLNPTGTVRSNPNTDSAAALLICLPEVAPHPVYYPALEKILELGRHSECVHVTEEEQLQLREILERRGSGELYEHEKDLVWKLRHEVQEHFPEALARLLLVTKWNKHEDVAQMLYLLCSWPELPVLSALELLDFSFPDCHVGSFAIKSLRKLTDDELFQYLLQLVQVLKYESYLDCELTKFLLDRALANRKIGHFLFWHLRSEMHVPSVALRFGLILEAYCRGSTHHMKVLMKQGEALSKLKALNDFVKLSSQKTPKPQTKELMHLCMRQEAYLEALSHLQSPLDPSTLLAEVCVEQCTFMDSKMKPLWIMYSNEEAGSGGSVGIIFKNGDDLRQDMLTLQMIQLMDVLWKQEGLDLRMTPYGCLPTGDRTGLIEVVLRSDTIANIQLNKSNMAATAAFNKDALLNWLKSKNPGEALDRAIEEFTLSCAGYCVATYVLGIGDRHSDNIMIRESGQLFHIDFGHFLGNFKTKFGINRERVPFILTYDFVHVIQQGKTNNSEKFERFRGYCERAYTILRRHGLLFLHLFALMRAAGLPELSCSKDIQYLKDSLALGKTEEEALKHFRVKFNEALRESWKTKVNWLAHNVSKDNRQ

| inhibition | SMILES |
| --- | --- |
| 87% | Cc1cc(C(C)Nc2ccccc2)c2oc(N3CCOCC3)nc(=O)c2c1 (stereo unspecified) |

These compounds were tested against DNA-dependent protein kinase catalytic subunit (Homo sapiens, UniProt P78527) (assay: Inhibition of DNA-PK (unknown origin) in the presence of ATP).
Sequence of DNA-dependent protein kinase catalytic subunit (P78527 whole entry): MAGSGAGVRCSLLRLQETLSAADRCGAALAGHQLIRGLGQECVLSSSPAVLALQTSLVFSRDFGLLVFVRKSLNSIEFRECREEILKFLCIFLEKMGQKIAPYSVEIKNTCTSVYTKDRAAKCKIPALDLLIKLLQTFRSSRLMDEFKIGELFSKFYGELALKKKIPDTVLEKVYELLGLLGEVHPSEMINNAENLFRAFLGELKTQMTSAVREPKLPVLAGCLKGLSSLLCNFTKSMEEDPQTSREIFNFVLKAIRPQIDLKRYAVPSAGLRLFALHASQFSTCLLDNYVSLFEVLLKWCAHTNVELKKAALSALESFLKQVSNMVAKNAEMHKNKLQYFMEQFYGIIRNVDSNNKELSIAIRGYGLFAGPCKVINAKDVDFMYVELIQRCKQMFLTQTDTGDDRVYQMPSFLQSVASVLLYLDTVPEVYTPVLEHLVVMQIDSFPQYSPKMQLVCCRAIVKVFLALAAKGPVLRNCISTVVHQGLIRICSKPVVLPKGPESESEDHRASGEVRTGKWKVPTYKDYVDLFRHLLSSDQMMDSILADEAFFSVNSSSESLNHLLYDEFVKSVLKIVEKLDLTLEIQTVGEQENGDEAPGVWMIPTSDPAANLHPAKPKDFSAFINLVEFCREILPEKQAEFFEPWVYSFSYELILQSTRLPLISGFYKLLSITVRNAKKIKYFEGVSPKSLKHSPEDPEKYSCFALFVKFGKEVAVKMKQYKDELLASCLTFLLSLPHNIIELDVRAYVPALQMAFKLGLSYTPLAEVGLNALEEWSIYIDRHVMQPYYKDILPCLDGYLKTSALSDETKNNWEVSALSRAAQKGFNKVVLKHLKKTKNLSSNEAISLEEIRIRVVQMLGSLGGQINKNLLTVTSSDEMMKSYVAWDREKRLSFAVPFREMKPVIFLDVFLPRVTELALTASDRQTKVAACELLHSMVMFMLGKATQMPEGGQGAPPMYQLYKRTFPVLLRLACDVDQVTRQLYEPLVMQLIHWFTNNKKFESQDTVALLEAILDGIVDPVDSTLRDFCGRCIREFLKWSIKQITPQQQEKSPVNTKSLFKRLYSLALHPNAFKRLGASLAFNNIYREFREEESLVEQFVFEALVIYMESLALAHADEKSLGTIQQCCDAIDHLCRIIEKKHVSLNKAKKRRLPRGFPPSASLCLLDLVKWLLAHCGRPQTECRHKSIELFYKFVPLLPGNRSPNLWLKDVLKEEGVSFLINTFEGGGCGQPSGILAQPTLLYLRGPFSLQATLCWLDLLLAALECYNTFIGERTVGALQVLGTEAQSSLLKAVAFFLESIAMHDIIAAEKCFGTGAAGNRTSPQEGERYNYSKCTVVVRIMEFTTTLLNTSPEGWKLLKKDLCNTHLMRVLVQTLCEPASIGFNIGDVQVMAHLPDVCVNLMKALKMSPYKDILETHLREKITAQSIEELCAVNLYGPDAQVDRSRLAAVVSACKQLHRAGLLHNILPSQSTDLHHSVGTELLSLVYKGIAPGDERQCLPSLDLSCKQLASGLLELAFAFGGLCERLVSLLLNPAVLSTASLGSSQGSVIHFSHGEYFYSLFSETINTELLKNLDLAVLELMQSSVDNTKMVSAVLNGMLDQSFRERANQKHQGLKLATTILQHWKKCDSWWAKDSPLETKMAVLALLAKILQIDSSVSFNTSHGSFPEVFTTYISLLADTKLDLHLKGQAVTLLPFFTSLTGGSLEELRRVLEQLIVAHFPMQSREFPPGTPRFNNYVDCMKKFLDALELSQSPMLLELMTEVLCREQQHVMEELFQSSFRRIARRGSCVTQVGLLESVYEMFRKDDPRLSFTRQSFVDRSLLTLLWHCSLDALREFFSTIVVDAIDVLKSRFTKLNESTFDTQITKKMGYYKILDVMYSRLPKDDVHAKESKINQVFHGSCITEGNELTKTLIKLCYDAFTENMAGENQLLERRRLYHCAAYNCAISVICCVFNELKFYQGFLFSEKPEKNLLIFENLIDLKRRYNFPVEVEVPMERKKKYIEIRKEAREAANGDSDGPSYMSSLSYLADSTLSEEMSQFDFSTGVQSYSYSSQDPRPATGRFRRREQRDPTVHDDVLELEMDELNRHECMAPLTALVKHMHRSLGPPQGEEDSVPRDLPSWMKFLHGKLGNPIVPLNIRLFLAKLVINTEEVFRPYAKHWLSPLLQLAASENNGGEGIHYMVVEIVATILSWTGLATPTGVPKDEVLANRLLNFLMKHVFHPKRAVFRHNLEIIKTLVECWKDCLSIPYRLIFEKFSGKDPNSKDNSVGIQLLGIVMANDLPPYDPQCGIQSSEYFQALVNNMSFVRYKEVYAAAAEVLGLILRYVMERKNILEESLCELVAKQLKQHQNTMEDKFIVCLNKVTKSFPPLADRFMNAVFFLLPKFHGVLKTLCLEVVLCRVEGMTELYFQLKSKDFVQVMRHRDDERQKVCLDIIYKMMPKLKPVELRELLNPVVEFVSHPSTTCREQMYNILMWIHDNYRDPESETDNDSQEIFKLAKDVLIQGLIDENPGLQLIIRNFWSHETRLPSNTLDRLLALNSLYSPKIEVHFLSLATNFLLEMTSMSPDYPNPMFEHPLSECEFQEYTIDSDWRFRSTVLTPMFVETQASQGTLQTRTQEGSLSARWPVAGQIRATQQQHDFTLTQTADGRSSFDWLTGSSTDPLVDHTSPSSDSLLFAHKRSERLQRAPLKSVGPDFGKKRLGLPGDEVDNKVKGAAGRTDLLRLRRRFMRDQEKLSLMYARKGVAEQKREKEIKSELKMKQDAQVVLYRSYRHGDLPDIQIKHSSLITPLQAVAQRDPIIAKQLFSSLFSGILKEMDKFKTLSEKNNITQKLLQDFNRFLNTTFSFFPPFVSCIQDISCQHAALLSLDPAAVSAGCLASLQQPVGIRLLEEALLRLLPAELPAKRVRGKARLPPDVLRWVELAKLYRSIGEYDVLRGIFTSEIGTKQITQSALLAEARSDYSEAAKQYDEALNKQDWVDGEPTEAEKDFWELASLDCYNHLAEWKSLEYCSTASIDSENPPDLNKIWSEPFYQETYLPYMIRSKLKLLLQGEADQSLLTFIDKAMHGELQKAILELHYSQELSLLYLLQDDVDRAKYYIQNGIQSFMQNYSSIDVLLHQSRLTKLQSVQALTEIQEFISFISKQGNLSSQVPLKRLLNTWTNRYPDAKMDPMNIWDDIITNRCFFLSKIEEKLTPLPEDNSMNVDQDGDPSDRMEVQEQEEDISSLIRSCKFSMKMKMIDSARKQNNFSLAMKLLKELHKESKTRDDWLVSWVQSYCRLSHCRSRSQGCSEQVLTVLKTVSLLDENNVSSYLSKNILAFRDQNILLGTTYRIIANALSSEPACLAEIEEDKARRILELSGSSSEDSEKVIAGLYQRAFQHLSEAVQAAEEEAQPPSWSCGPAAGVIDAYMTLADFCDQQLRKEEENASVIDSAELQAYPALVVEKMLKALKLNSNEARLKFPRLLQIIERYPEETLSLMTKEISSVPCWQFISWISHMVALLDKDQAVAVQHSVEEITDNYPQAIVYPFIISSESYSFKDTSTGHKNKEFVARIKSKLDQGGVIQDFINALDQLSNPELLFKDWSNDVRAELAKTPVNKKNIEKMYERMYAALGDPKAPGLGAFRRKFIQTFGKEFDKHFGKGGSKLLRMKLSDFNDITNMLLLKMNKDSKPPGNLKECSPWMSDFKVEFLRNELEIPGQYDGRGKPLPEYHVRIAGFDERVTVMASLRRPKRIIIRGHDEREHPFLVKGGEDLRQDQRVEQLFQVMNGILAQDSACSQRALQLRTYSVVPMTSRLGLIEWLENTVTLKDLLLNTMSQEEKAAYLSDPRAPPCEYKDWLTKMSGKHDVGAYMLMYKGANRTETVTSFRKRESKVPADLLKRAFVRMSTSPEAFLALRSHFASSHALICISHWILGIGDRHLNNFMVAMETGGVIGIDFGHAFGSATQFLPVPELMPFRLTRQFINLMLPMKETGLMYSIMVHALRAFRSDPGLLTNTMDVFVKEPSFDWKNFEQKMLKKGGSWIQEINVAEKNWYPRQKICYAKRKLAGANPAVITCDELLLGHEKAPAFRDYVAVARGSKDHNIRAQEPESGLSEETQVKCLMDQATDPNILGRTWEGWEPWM

| pIC50 | SMILES |
| --- | --- |
| 6.92 | Cc1cc(C(C)Nc2ccccc2)c2oc(N3CCOCC3)cc(=O)c2c1 (stereo unspecified) |
